Source: patent US12178224B1, “Use of gamma-quaternary ammonium butyrate compound in preparation of an animal feed additive” (ANIPHA TECHNOLOGIES PTY LTD, priority 2019, dated 2024)

Key:
[1] = tested on: tilapia; conditions: L-carnitine in basal diet, compared with the blank Control group; cited from earlier work
[2] = tested on: porkers; test: Effect on the production performance of porkers (breeding test); format: in vivo; conditions: 1000 ppm in basal diet, 28 days; for FCR (feed conversion ratio): ADFI/ADG
Description: 90 head of “duroc×landrace×Large Yorkshire” three-way cross lean-type pigs with similar weights having an average weight of 80 kg were randomly divided into 3 treatment groups, each group having 3 repetitions, and each repetition having 10 pigs, half male and half female. The pigsty and appliances were sterilized before testing. During the test, the piglets were fed in separate pigpens under the same feeding and management condition in the same pigsty. During the test, the test pigs ate and drank freely, and were fed twice a day. Each test group is a control group (Group I) and test groups II to III, respectively. Wherein, the control group was fed with a basal diet only, and the test groups II to III were fed with diets that were supplemented with 1000 ppm of different γ-quaternary ammonium butyrate compounds on the basis of the basal diet, specifically as shown in Table 1.
During the entire feeding process, no additional antioxidant components or growth promoters were added for each test group. The test period is 28 days, with each repetition as a unit, the pigs were weighed on the 28th day of the test after not stopping water but stopping feeding for 12 hours to calculate the average daily feed intake (ADFI, g/d*head), average daily gain (ADG, g/d*head) and feed conversion ratio (FCR) for each test group. The calculation formulas are as follows: Average daily feed intake=(total amount of feeds-remaining amount of feeds)/(test days×number of pigs per repetition); Average daily gain=(average weight at the end of the test-average weight at the beginning of the test)/test days; Feed conversion ratio=average daily feed intake/average daily gain.

[3] = tested on: broilers; test: Effect on the production performance of broilers (breeding test); format: in vivo, Chinese three-yellow-feather broilers; conditions: 600 ppm in basal diet, 20 days; for FCR (feed conversion ratio): ADFI/ADG
Protocol: A single-factor random design was adopted for the test. 360 of one-day-old Chinese three-yellow-feather broilers with similar weights having an average weight of 50 g were randomly divided into 3 treatment groups, each group having 6 repetitions, half male and half female, and each repetition having 20 Chinese three-yellow-feather broilers. The henhouse and appliances were sterilized before testing. During the test, the cage rearing was carried out in the same henhouse under the same feeding and management condition. The basal diet is mainly a corn-soybean meal, and no additional antioxidant components or growth promoters were added during the entire feeding process. Each test group is a control group (Group I) and test groups II to III, respectively. Wherein, the control group was fed with the basal diet only, and the test groups II to III were fed with basal diets that were added with 600 ppm of different γ-quaternary ammonium butyrate compounds.
The test period was 20 days in total. The test broilers were free to drink and eat, and were fed twice a day. With each repetition as a unit, the test broilers were weighed at the age of 21 days (stopping feeding for 12 hours, without stopping water) to count the consumption of the test broilers, calculate the average daily feed intake (ADFI, g/d*number of broilers), average daily gain (ADG, g/d*number of broilers) and feed conversion ratio (FCR) of each group of test broilers. The calculation formulas are as follows: Feed conversion ratio (FCR)=average daily feed intake/average daily gain.

| SMILES | weight gain rate reduced [1] [%] | ADFI (average daily feed intake) [2] [g/d * head] | ADG (average daily gain) [2] [g/d * head] | FCR (feed conversion ratio) [2] | ADFI (average daily feed intake) [3] | ADG (average daily gain) [3] | FCR (feed conversion ratio) [3] |
| --- | --- | --- | --- | --- | --- | --- | --- |
| C[N+](C)(C)C[C@H](O)CC(=O)[O-] [L-carnitine] | 1.2 | – | – | – | – | – | – |
| C[N+](C)(C)C[C@H](O)CC(=O)OCc1ccccc1 [benzyl L-carnitine chloride] | – | 2560 | 790 | 3.24 | 32.18 g/d * number of broilers | 13.46 g/d * number of broilers | 2.39 |
| CCOC(=O)C[C@@H](O)C[N+](C)(C)C [ethyl L-carnitine bromide, ethyl (R)-3-hydroxy-4-(trimethylammonium) butyrate bromide] | – | 2624 | 788 | 3.33 | 31.34 g/d * number of broilers | 13.00 g/d * number of broilers | 2.41 |
